Measured values from ChEMBL document CHEMBL3588813, “Antifungal Amphiphilic Aminoglycosides” (Medchemcomm, 2014).
Values after ≈ are worked out from the molar mass of the structure shown.

Experiments:
Enterococcus faecalis = test: Antimicrobial activity against vancomycin-resistant Enterococcus faecalis ATCC 1299 assessed as inhibition of bacterial growth incubated at 35 degC for 12 to 18 hrs; assay type: functional
Staphylococcus aureus [1] = test: Antimicrobial activity against Staphylococcus aureus ATCC 25923 assessed as inhibition of bacterial growth incubated at 35 degC for 12 to 18 hrs; assay type: functional
Pseudomonas aeruginosa = test: Antimicrobial activity against Pseudomonas aeruginosa ATCC 27853 assessed as inhibition of bacterial growth incubated at 35 degC for 12 to 18 hrs; assay type: functional
Staphylococcus aureus [2] = test: Antimicrobial activity against methicillin-resistant Staphylococcus aureus ATCC 33591 assessed as inhibition of bacterial growth incubated at 35 degC for 12 to 18 hrs; assay type: functional
Escherichia coli = test: Antimicrobial activity against Escherichia coli ATCC 25922 assessed as inhibition of bacterial growth incubated at 35 degC for 12 to 18 hrs; assay type: functional
Fusarium graminearum [3] = test: Antimicrobial activity against Fusarium graminearum B4-5A using potato dextrose broth as growth medium and diluent; assay type: functional
Fusarium graminearum [4] = test: Antimicrobial activity against Fusarium graminearum B4-5A using RPMI medium by microbroth dilution assay; assay type: functional
[5] = Induction of hemolysis in sheep erythrocytes incubated at 37 degC for 60 mins; assay type: cell-based, Ovis aries, Erythrocyte

Row | Compound | MIC (Enterococcus faecalis) | MIC (Staphylococcus aureus [1]) | MIC (Pseudomonas aeruginosa) | MIC (Staphylococcus aureus [2]) | MIC (Escherichia coli) | MIC (Fusarium graminearum [3]) | MIC (Fusarium graminearum [4]) | IC90 at 1 h [5]
1 | CCCCCCCCCC(=O)NC[C@H]1O[C@@H](O[C@@H]2[C@@H](O)[C@H](N)C[C@H](N)[C@H]2O[C@H]2O[C@H](CN)[C@@H](O)[C@H](O)[C@H]2N)[C@H](O)[C@@H]1O[C@H]1O[C@@H](CN)[C@@H](O)[C@H](O)[C@H]1N | 64 µg/mL (≈ 83.3 µM) | 16 µg/mL (≈ 20.8 µM) | 16 µg/mL (≈ 20.8 µM) | 125 µg/mL (≈ 163 µM) | 32 µg/mL (≈ 41.7 µM) |  |  | 
2 | NC[C@@H]1O[C@H](O[C@H]2[C@@H](O)[C@H](O[C@@H]3[C@@H](O)[C@H](N)C[C@H](N)[C@H]3O[C@H]3O[C@H](CN)[C@@H](O)[C@H](O)[C@H]3N)O[C@@H]2Cn2cc(CNC(=O)c3cc(-c4ccccc4)nc4ccccc34)nn2)[C@H](N)[C@@H](O)[C@@H]1O |  | 8 µg/mL (≈ 8.64 µM) |  |  | 32 µg/mL (≈ 34.6 µM) |  |  | 
3 | NC[C@H]1O[C@H](O[C@H]2[C@H](O)[C@@H](O[C@H]3O[C@H](CO)[C@@H](O)[C@H](N)[C@H]3O)[C@H](N)C[C@@H]2N)[C@H](N)[C@@H](O)[C@@H]1O [BEKANAMYCIN] |  |  |  |  |  | > 250 µg/mL |  | 
4 | CN[C@H](CC(C)C)C(=O)N[C@H]1C(=O)N[C@@H](CC(N)=O)C(=O)N[C@H]2C(=O)N[C@H]3C(=O)N[C@H](C(=O)N[C@H](C(=O)O)c4cc(O)cc(O)c4-c4cc3ccc4O)[C@H](O)c3ccc(c(Cl)c3)Oc3cc2cc(c3O[C@@H]2O[C@H](CO)[C@@H](O)[C@H](O)[C@H]2O[C@H]2C[C@](C)(N)[C@H](O)[C@H](C)O2)Oc2ccc(cc2Cl)[C@H]1O [VANCOMYCIN] | 250 µg/mL (≈ 173 µM) |  | ≥ 250 µg/mL |  | 125 µg/mL (≈ 86.3 µM) |  |  | 
5 | NCC[C@H](O)C(=O)N[C@@H]1C[C@H](N)[C@@H](O[C@H]2O[C@H](CN)[C@@H](O)[C@H](O)[C@H]2O)[C@H](O)[C@H]1O[C@H]1O[C@H](CO)[C@@H](O)[C@H](N)[C@H]1O [AMIKACIN] | ≥ 250 µg/mL | 1 µg/mL (≈ 1.71 µM) | 0.5 µg/mL (≈ 0.854 µM) | 8 µg/mL (≈ 13.7 µM) | 1 µg/mL (≈ 1.71 µM) |  |  | 
6 | CCCCCCCCCCCCCC(=O)NC[C@H]1O[C@@H](O[C@@H]2[C@@H](O)[C@H](N)C[C@H](N)[C@H]2O[C@H]2O[C@H](CN)[C@@H](O)[C@H](O)[C@H]2N)[C@H](O)[C@@H]1O[C@H]1O[C@@H](CN)[C@@H](O)[C@H](O)[C@H]1N | 8 µg/mL (≈ 9.71 µM) | 2 µg/mL (≈ 2.43 µM) | 8 µg/mL (≈ 9.71 µM) | 4 µg/mL (≈ 4.85 µM) | 8 µg/mL (≈ 9.71 µM) |  |  | 
7 | CCCCCCc1cn(C[C@H]2O[C@@H](O[C@@H]3[C@@H](O)[C@H](N)C[C@H](N)[C@H]3O[C@H]3O[C@H](CN)[C@@H](O)[C@H](O)[C@H]3N)[C@H](O)[C@@H]2O[C@H]2O[C@@H](CN)[C@@H](O)[C@H](O)[C@H]2N)nn1 |  | 4 µg/mL (≈ 5.33 µM) |  |  | 32 µg/mL (≈ 42.7 µM) |  |  | 
8 | CCCCCCCCCCCCO[C@H]1[C@H](N)[C@@H](O)[C@@H](O[C@@H]2[C@@H](O)[C@H](O[C@H]3O[C@H](CN)[C@@H](O)[C@H](O)[C@H]3N)[C@@H](N)C[C@H]2N)O[C@@H]1C |  |  |  |  |  | > 500 µg/mL | > 500 µg/mL | 
9 | NC[C@@H]1O[C@H](O[C@H]2[C@@H](O)[C@H](O[C@@H]3[C@@H](O)[C@H](N)C[C@H](N)[C@H]3O[C@H]3O[C@H](CN)[C@@H](O)[C@H](O)[C@H]3N)O[C@@H]2CO)[C@H](N)[C@@H](O)[C@@H]1O [FRAMYCETIN] | ≥ 250 µg/mL | 1 µg/mL (≈ 1.63 µM) | 64 µg/mL (≈ 104 µM) | 125 µg/mL (≈ 203 µM) | 4 µg/mL (≈ 6.51 µM) |  | 62.5 µg/mL (≈ 102 µM) | 
10 | NC[C@@H]1O[C@H](O[C@H]2[C@@H](O)[C@H](O[C@@H]3[C@@H](O)[C@H](N)C[C@H](N)[C@H]3O[C@H]3O[C@H](CN)[C@@H](O)[C@H](O)[C@H]3N)O[C@@H]2CNC(=O)c2cc(-c3ccccc3)nc3ccccc23)[C@H](N)[C@@H](O)[C@@H]1O |  | 4 µg/mL (≈ 4.73 µM) |  |  | 8 µg/mL (≈ 9.47 µM) |  |  | 
11 | CCCCCCCCCCCCCCCC(=O)NC[C@H]1O[C@@H](O[C@@H]2[C@@H](O)[C@H](N)C[C@H](N)[C@H]2O[C@H]2O[C@H](CN)[C@@H](O)[C@H](O)[C@H]2N)[C@H](O)[C@@H]1O[C@H]1O[C@@H](CN)[C@@H](O)[C@H](O)[C@H]1N | 4 µg/mL (≈ 4.69 µM) | 1 µg/mL (≈ 1.17 µM) | 4 µg/mL (≈ 4.69 µM) | 2 µg/mL (≈ 2.35 µM) | 4 µg/mL (≈ 4.69 µM) |  | 125 µg/mL (≈ 147 µM) | > 1000 µg/mL
